Patent publication US10240210B2, “Methods of stratifying patients for treatment with retinoic acid receptor-alpha agonists” (Syros Pharmaceuticals, Inc., priority 2016, dated 2019)

Experiments:
[1] = system: EOL-1; experiment: AML cell line anti-proliferation (cell viability, ATPlite or CyQuant); format: cell-based; settings: Homo sapiens, EOL1, 240 h; EOL-1 AML cell line; five or ten days incubation; read-out: Tamibarotene anti-proliferative potency (EC50)
[2] = system: Kasumi-1; experiment: as above; format: cell-based, human
[3] = system: KG-1a; experiment: as above; format: cell-based, human
[4] = system: PL21; experiment: as above; format: cell-based; settings: Homo sapiens, PL-21, 240 h, five or ten days incubation, read-out: Tamibarotene anti-proliferative potency (EC50)
[5] = system: MV4-11; experiment: as above; format: cell-based, human
[6] = system: HL60; experiment: as above; format: cell-based; settings: Homo sapiens, HL-60, 240 h; HL60 (APL cell line); five or ten days incubation; read-out: Tamibarotene anti-proliferative potency (EC50)
[7] = system: OCI-AML3; experiment: as above; format: cell-based, human
[8] = system: OCI-AML2; experiment: as above; format: cell-based; settings: Homo sapiens, 240 h, five or ten days incubation, read-out: Tamibarotene anti-proliferative potency (EC50)
[9] = system: Nomo-1; experiment: as above; format: cell-based, human
[10] = system: OCI-M1; experiment: as above; format: cell-based, human
[11] = system: HEL; experiment: as above; format: cell-based; settings: Homo sapiens, 240 h, five or ten days incubation, read-out: Tamibarotene anti-proliferative potency (EC50)
[12] = system: Sig-M5; experiment: as above; format: cell-based, human
[13] = system: THP-1; experiment: as above; format: cell-based; settings: Homo sapiens, 240 h; THP-1 AML cell line; five or ten days incubation; read-out: Tamibarotene anti-proliferative potency (EC50)
[14] = system: AM5512 xenografts; experiment: AML patient sample-derived xenograft model; format: in vivo, BALB/c nude immunocompromised mice; settings: 6 mg per kg orally daily, after 35 days of treatment
Experimental: (§1) Different AML patient sample (AM8096, AM5512, AM7577 and AM7440)-derived xenograft models in BALB/c nude immunocompromised mice are prepared by Crown Biosciences (Beijing, China) essentially as follows.
(§2) Approximately 2×10^6 cells from each patient sample are suspended in 100 μL PBS and injected into separate mice (n=3 for each different patient sample and for the control) by IV tail injection. For AM5512, AM7577 and AM7440 xenografts, tumor burden is considered high enough to start treatment when the concentration of human CD45^+ cells reaches ˜1-5% in the animal's peripheral blood. Human CD45^+ cells are detected in mouse blood (obtained via eye bleeds) using a fluorescence activated cell sorter and FITC anti-human CD45 (Biolegend, Cat#304037). For AM8096 xenografts, treatment is begun 40 days after injection of cells.
(§3) Tamibarotene is administered orally in pH 8 adjusted PBS, 1% DMSO on a daily schedule at a final dose of 6 mg per kg body weight in a 10 ml/kg volume. Mice in the vehicle arm are given the same schedule, volume, and formulation, but lacking tamibarotene. Human CD45^+ cell levels in peripheral blood from the treated animals and control animals are measured once a week.

[15] = system: AM7440 xenografts; experiment: AML patient sample-derived xenograft model; format: in vivo, BALB/c nude immunocompromised mice; settings: 6 mg per kg orally daily
Experimental: as §1, §2, §3

[16] = system: AM7577 xenografts; experiment: AML patient sample-derived xenograft model; format: in vivo, BALB/c nude immunocompromised mice; settings: 6 mg per kg orally daily
Experimental: as §1, §2, §3

[17] = system: AM8096 xenografts; experiment: AML patient sample-derived xenograft model; format: in vivo, BALB/c nude immunocompromised mice; settings: 6 mg per kg orally daily, after 35 days of treatment
Experimental: as §1, §2, §3

## CC1(C)CCC(C)(C)c2cc(NC(=O)c3ccc(C(=O)O)cc3)ccc21 [tamibarotene]
[1]
  EC50: 0.89 nM
[2]; Homo sapiens, 240 h, Kasumi-1 AML cell line, five or ten days incubation, read-out: Tamibarotene anti-proliferative potency (EC50)
  EC50: > 50000 nM
[2]; Kasumi-1
  sensitivity of cell line to tamibarotene: insensitive
[3]; Homo sapiens, 240 h, KG-1a AML cell line, five or ten days incubation, read-out: Tamibarotene anti-proliferative potency (EC50)
  EC50: > 50000 nM
[3]; KG1a
  sensitivity of cell line to tamibarotene: insensitive
[4]
  EC50: 1.41 nM
[5]; Homo sapiens, 240 h, MV4-11 AML cell line, five or ten days incubation, read-out: Tamibarotene anti-proliferative potency (EC50)
  EC50: 0.17 nM
[5]; MV-4-11
  sensitivity of cell line to tamibarotene: sensitive
[6]
  EC50: 1.64 nM
[7]; Homo sapiens, OCI-AML-3, 240 h, OCI-AML3 AML cell line, five or ten days incubation, read-out: Tamibarotene anti-proliferative potency (EC50)
  EC50: 0.34 nM
[7]; OCI-AML3
  sensitivity of cell line to tamibarotene: sensitive
[8]
  EC50: 0.34 nM
[9]; Homo sapiens, 240 h, Nomo-1 AML cell line, five or ten days incubation, read-out: Tamibarotene anti-proliferative potency (EC50)
  EC50: 0.48 nM
[9]; NOMO-1
  sensitivity of cell line to tamibarotene: sensitive
[10]; Homo sapiens, 240 h, OCI-M1 AML cell line, five or ten days incubation, read-out: Tamibarotene anti-proliferative potency (EC50)
  EC50: > 50000 nM
[10]; OCI-M1
  sensitivity of cell line to tamibarotene: insensitive
[11]
  EC50: > 50000 nM
[12]; Homo sapiens, 240 h, Sig-M5 AML cell line, five or ten days incubation, read-out: Tamibarotene anti-proliferative potency (EC50)
  EC50: 0.46 nM
[12]; Sig-M5
  sensitivity of cell line to tamibarotene: sensitive
[13]
  EC50: 0.95 nM
[14]
  total % of CD45+ cells and % of CD45+ cells in blood, bone marrow and spleen, compared to the vehicle control: significant reduction
[15]
  tumor volume between tamibarotene treated and vehicle treated animals, overall or in blood, bone marrow or spleen: no significant reduction
[16]
  tumor volume between tamibarotene treated and vehicle treated animals, overall or in blood, bone marrow or spleen: no significant reduction
[17]
  total % of CD45+ cells and % of CD45+ cells in blood, bone marrow and spleen, compared to the vehicle control: significant reduction
